{"source": "patent US6872689B1", "about": "“Water-dispersible agrochemical compositions” (Agform, Ltd., priority 1999, dated 2005)", "format": "physicochemical", "method": "200 mls water was poured into a jacketed glass vessel and allowed to reach 25 C. A Grant recirculator was used to maintain the temperature at 25 C+/−1 C. A magnetic stirrer at a set speed was used to stir the water. The specified weight of granules was then added to the water and allowed to disperse for 30 seconds before a timer was started. A 2 mls sample was removed using a syringe after 5 minutes and filtered using a 0.45 micron syringe filter. The solution was then analysed to determine the active concentration using a HPLC method."}
{"smiles": "COc1nc(C)nc(NC(=O)NS(=O)(=O)c2ccccc2Cl)n1", "note": "[Airmilled technical, Chlorsulfuron]", "values": [{"measurement": "solubility in distilled water (in words)", "result": "not readily soluble"}, {"measurement": "% active added to water that dissolved after 5 minutes", "setting": "chlorsulfuron, dilution rate 91 mgs a.i./L, distilled water, 25 C", "result": "<2", "unit": "%"}]}
